The experiment concerns the target IMP1 (insulin-like growth factor-2 mRNA-binding protein 1) (Homo sapiens, UniProt Q9NZI8). The experiment is described as follows: fluorescence anisotropy/polarization microplate assay. For orientation: In fluorescence polarisation assays a small probe gives low polarisation when free and higher when bound to something large.

Sequence of IMP1 (insulin-like growth factor-2 mRNA-binding protein 1) (Q9NZI8 whole entry): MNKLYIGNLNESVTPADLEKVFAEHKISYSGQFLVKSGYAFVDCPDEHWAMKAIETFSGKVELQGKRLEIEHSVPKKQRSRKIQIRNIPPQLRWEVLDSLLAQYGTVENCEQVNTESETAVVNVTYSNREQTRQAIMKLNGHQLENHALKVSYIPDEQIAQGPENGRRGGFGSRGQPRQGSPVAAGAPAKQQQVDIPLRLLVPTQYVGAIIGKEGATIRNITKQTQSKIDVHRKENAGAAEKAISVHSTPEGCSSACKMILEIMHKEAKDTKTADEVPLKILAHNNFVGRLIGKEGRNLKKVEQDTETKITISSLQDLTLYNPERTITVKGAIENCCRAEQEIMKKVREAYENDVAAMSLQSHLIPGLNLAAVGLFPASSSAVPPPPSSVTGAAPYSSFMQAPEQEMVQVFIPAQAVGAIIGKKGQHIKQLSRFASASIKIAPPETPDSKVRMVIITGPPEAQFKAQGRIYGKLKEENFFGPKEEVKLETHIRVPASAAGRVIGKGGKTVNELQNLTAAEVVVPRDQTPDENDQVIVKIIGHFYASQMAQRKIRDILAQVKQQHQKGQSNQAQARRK

As for `NC(=O)c1ccccc1N=Cc1ccc(Br)s1` [BTYNB, 2-{[(5-bromo-2-thienyl)methylene]amino}benzamide], the IC50 worked out at 5 µM.

As a reminder, the IC50 is the concentration that gives 50% inhibition. A low value points to greater potency in that assay.

(Values after PMC5576976 (Translational Oncology, 2017).)
